In patent US5462926A (Biomeasure, Inc., priority 1993, dated 1995):
Like-named read-outs stand apart in the source and are kept apart here. Where a SMILES comes first, the peptide text is derived from it. Bridges are numbered along the chain shown (N, C = ends). [ ]: non-standard residue; d: D form. 2Nal = N[C@@H](Cc1ccc2ccccc2c1)C(=O)O; d2Nal = N[C@H](Cc1ccc2ccccc2c1)C(=O)O

Key:
GRP receptor = GRP receptor (Rattus norvegicus, UniProt P52500); test: Amylase release from rat pancreatic acini (alone or Bn-stimulated); assay type: cell-based; set-up: from tissue; host or cells: dispersed pancreatic acini; settings: for Amylase Release, analog Alone (10 μM): analog 10 μM alone, control 4 ± 1; for Amylase Release, analog Plus Bn (0.3 nM): analog 10 μM plus Bn 0.3 nM, Bn without analog 15 ± 1; for IC50: read-out: IC50 Amylase Release, GRP Receptor, Rat Pancreatic Acini
Sequence of GRP receptor (P52500 whole entry): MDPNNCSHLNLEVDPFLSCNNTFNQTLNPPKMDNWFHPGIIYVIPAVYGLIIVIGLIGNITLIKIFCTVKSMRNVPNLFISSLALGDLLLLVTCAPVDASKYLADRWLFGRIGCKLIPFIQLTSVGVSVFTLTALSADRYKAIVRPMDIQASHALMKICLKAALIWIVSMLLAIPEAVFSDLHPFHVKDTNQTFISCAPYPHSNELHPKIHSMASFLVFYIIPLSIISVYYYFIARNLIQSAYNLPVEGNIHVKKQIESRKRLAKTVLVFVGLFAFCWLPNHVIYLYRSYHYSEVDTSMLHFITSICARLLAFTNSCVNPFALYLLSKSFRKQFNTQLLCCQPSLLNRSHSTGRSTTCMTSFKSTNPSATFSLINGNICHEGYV
In short: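 Rat pancreatic acini incubated 30 min at 37° C without additives or with somatostatin octapeptide analog, Bn, NMB or combinations. Amylase release expressed as percent of total cellular amylase released during incubation; for inhibition, somatostatin analog (10 μM) tested on 0.3 nM Bn-stimulated release.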

[1] = target: T1, GRP receptors on rat pancreatic acini (Rattus norvegicus, UniProt P52500); test: Binding of 125I-[Tyr4]bombesin to pancreatic acini; settings: read-out: Ki 125I-[Tyr4]Bn Binding, GRP Receptor, Rat Pancreatic Acini; Ki by Cheng method
T1 construct: from tissue; host or cells: dispersed pancreatic acini
T1 sequence (P52500 whole entry): as above
Description: Nonsaturable binding was<10% of total binding in all experiments.

rat NMB receptor = target: T2, rat NMB receptor (Rattus norvegicus, UniProt P24053); test: Binding of 125I-[D-Tyr0]NMB to NMB-R transfected BALB 3T3 cells; settings: for fold decrease in NMB receptor affinity compared with cyclo SS-octa (#1): structure-function comparison from Table 1
T2 construct: a full length NMB-preferring bombesin receptor clone generated from rat esophagus; expressed in transfected cells
T2 sequence (P24053 1-390): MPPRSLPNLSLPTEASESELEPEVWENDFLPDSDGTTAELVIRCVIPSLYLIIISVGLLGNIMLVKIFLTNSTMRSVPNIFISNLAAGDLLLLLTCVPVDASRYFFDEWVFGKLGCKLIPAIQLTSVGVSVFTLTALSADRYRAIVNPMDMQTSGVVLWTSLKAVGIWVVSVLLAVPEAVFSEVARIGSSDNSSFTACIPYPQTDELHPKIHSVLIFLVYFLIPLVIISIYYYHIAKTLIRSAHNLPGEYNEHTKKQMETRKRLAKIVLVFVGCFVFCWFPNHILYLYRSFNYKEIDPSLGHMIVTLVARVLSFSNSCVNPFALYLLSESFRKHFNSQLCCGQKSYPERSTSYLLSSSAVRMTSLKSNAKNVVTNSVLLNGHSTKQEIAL

somatostatin receptors = target: T3, somatostatin receptors (Rattus norvegicus, UniProt P30680); test: Somatostatin membrane receptor assay, 125I-[Tyr11]SS-14, AR 42J cell membranes; assay type: binding; settings: Cheng method; table prints no unit (b360 gives nM for a Table 4 value); read-out: affinity, 125I-[Tyr11]SS-14, AR 42J Cell Membranes (somatostatin receptors)
T3 construct: endogenous in cells; host or cells: rat AR 42J pancreatic acinar tumor cell membranes
T3 sequence (P30680 whole entry): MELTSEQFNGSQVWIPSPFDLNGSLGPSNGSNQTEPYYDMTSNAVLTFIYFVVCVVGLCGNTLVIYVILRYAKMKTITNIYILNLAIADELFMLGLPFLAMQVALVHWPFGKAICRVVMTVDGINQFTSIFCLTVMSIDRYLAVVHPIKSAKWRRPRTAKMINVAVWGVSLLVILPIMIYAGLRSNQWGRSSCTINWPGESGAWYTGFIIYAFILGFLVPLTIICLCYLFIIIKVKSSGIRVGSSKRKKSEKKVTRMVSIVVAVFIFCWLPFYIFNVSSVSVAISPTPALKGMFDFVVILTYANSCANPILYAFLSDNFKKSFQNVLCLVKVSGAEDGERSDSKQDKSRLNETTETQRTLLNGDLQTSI

[2] = target: T4, NMB receptors on C-6 cells (Rattus norvegicus, UniProt P24053); test: Binding of 125I-[D-Tyr0]NMB to C-6 glioblastoma cells; settings: for Ki: Ki by Cheng method, read-out: Ki 125I-NMB Binding, NMB Receptor, C-6 Cells
T4 construct: endogenous in cells; host or cells: rat glioblastoma C-6 cells
T4 sequence (P24053 1-390): T2 sequence (P24053 1-390)
In short: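 Disaggregated rat C-6 glioblastoma cells (15×10^6/ml) or NMB-R-transfected cells (2×10^6/ml) were incubated with 75 pM 125I-[D-Tyr0]NMB for 60 min at 22° C in HEPES binding buffer with 0.2% BSA, pH 7.4. Values are saturable binding: total minus binding in the presence of excess unlabelled NMB.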

[3] = NMB-R transfected BALB 3T3 cells, Ki by Cheng method, read-out: Ki 125I-NMB Binding, NMB Receptor, Transfected Cells

Compound	Amylase Release, analog Alone (10 μM) (GRP receptor) [% total]	Amylase Release, analog Plus Bn (0.3 nM) (GRP receptor) [% total]	IC50 (GRP receptor) [µM]	Ki [1] [µM]	Ki (rat NMB receptor; [3]) [µM]	fold decrease in NMB receptor affinity compared with cyclo SS-octa (#1) (rat NMB receptor) [fold]	Ki (somatostatin receptors) [nM]	Ki [2] [µM]	fold by which cyclo SS-octa is more potent than the analog, 125I-NMB binding (rat NMB receptor; NMB-R transfected cells) [fold]	Ki (rat NMB receptor; NMB-R transfected cells, value or range given for a group, read-out: K1, 125I-NMB binding to NMB-R transfected cells (text)) [µM]	effect on Bn-stimulated amylase release (GRP receptor; 0.3 nM Bn)	Kd (rat NMB receptor; NMB-R transfected 3T3 cells, read-out: Kd, inhibition of 125I-[D-Tyr0]NMB binding, NMB-R transfected 3T3 cells) [µM]	concentration causing complete inhibition of 125I-NMB binding (rat NMB receptor; NMB-R transfected cells) [µM]	concentration causing detectible inhibition of 125I-NMB binding (rat NMB receptor; NMB-R transfected cells) [µM]	type of antagonism (rat NMB receptor; NMB-R transfected cells, 0.5 μM)	IC50 (rat NMB receptor; NMB-R transfected cells, read-out: half-maximal inhibition of 125I-NMB binding) [µM]	Kd ([2]; read-out: Kd, inhibition of 125I-[D-Tyr0]NMB binding, glioblastoma C-6 cells) [µM]
CC(C)[C@@H]1NC(=O)[C@H](CCCCN)NC(=O)[C@@H](Cc2c[nH]c3ccccc23)NC(=O)[C@H](Cc2ccc(O)cc2)NC(=O)[C@@H](NC(=O)[C@H](N)Cc2ccc3ccccc3c2)CSSC[C@H](C(=O)N[C@@H](Cc2ccc3ccccc3c2)C(N)=O)NC1=O [Analog #11, H2 -D-Nal-Cys-Tyr-D-Trp-Lys-Val-D-Cys-Nal-NH2] (H-[d2Nal]CY[dW]KV[dC][2Nal]-NH2; disulfide 2-7)	2 ± 1	14 ± 1	> 10	> 10	1.08 ± 0.199	5	48 ± 3	1.74 ± 0.345									
CC(C)[C@@H]1NC(=O)[C@H](CCCCN)NC(=O)[C@@H](Cc2c[nH]c3ccccc23)NC(=O)[C@H](Cc2ccc(O)cc2)NC(=O)[C@@H](NC(=O)[C@H](N)Cc2c[nH]c3ccccc23)CSSC[C@@H](C(=O)N[C@@H](Cc2ccc3ccccc3c2)C(N)=O)NC1=O [Analog #12, H2 -D-Trp-Cys-Tyr-D-Trp-Lys-Val-Cys-Nal-NH2] (H-[dW]CY[dW]KVC[2Nal]-NH2; disulfide 2-7)	3 ± 1	13 ± 1	> 10	> 10	1.41 ± 0.127	4 to 7	3.1 ± 1.6	1.78 ± 0.109	9	1.4 to 2.3							
CC(C)[C@@H]1NC(=O)[C@H](CCCCN)NC(=O)[C@@H](Cc2c[nH]c3ccccc23)NC(=O)[C@H](Cc2ccc(O)cc2)NC(=O)[C@@H](NC(=O)[C@H](N)Cc2ccc3ccccc3c2)CSSC[C@@H](C(=O)N[C@@H](Cc2ccc3ccccc3c2)C(N)=O)NC1=O [Analog #1, H2 -D-Nal-Cys-Tyr-D-Trp-Lys-Val-Cys-Nal-NH2] (H-[d2Nal]CY[dW]KVC[2Nal]-NH2; disulfide 2-7)	5 ± 1	15 ± 2	> 10	18.3 ± 2.11	0.216 ± 0.036		0.8 ± 0.5	0.059 ± 0.009			did not inhibit	0.216	3	0.1	competitive antagonist	0.216	0.059
